Laboratory results published in PubChem BioAssay AID248 (DTP/NCI, 2004).
Toxic doses and inconclusive results are not listed. Rule as the data show it: active = T/C of 150% or more; inactive = T/C below 125%.

Test system: L1210 leukemia ip in BDF1 mice, survival T/C
Assay: NCI In Vivo Anticancer Drug Screen. Data for tumor model L1210 Leukemia (intraperitoneal) in B6D2F1 (BDF1) mice
Conditions: endpoint: mean survival time, higher = longer survival
Procedure, shortened: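 Read-out is survival time, reported as the treated-group measurement over the vehicle-control measurement.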

[1] = dose: 100.0 mg/kg/injection, schedule: Q01DX001 (ip), vehicle: Klucel (hydroxypropylcellulose) (HPC)
[2] = dose: 200.0 mg/kg/injection, schedule: Q01DX001 (ip), vehicle: Klucel (hydroxypropylcellulose) (HPC)
[3] = dose: 100.0 mg/kg/injection, schedule: Q04DX003 (ip), vehicle: saline with Tween-80
[4] = dose: 200.0 mg/kg/injection, schedule: Q04DX003 (ip), vehicle: saline with Tween-80
[5] = dose: 400.0 mg/kg/injection, schedule: Q04DX003 (ip), vehicle: saline with Tween-80
[6] = dose: 100.0 mg/kg/injection, schedule: Q01DX001 (ip), vehicle: saline
[7] = dose: 200.0 mg/kg/injection, schedule: Q01DX001 (ip), vehicle: saline
[8] = dose: 400.0 mg/kg/injection, schedule: Q01DX001 (ip), vehicle: saline

Measured: T/C

CCCCCCCCSCCCCCCCCCCCSCCCCCCCC
inactive: [1] 102 % of control | [2] 92 % of control

CC(C)(C)N1CCC1CN (stereo not given)
inactive: dose: 75.0 mg/kg/injection, schedule: Q01DX001 (ip), vehicle: saline 104 % of control | dose: 150.0 mg/kg/injection, schedule: Q01DX001 (ip), vehicle: saline 102 % of control | dose: 300.0 mg/kg/injection, schedule: Q01DX001 (ip), vehicle: saline 102 % of control

Nc1nc(=S)[nH]c(C(=O)O)c1Cc1ccccc1
inactive: dose: 10.0 mg/kg/injection, schedule: Q04DX003 (ip), vehicle: Klucel (hydroxypropylcellulose) (HPC) 101 % of control | dose: 20.0 mg/kg/injection, schedule: Q01DX009 (ip), vehicle: Klucel (hydroxypropylcellulose) (HPC) 92 % of control | dose: 20.0 mg/kg/injection, schedule: Q04DX003 (ip), vehicle: Klucel (hydroxypropylcellulose) (HPC) 95 % of control | dose: 40.0 mg/kg/injection, schedule: Q01DX009 (ip), vehicle: Klucel (hydroxypropylcellulose) (HPC) 104 % of control | dose: 40.0 mg/kg/injection, schedule: Q04DX003 (ip), vehicle: Klucel (hydroxypropylcellulose) (HPC) 98 % of control | dose: 80.0 mg/kg/injection, schedule: Q01DX009 (ip), vehicle: Klucel (hydroxypropylcellulose) (HPC) 98 % of control

c1ccc(B2Nc3ccccc3-c3ccccc32)cc1
inactive: [3] 98 % of control | [4] 96 % of control | [5] 98 % of control

O=C(CCCCl)CC(O)(C(F)(F)Cl)C(F)(F)Cl
inactive: [3] 104 % of control | [4] 102 % of control

O=S(=O)(C/C(=N\O)c1ccccc1)C/C(=N/O)c1ccccc1
inactive: dose: 100.0 mg/kg/injection, schedule: Q04DX003 (ip), vehicle: saline 104 % of control | dose: 200.0 mg/kg/injection, schedule: Q04DX003 (ip), vehicle: saline 98 % of control | dose: 400.0 mg/kg/injection, schedule: Q04DX003 (ip), vehicle: saline 100 % of control

Cc1ccccc1N(C)C(=S)c1ccc(Cl)cc1
inactive: [1] 105 % of control | dose: 100.0 mg/kg/injection, schedule: Q04DX003 (ip), vehicle: Klucel (hydroxypropylcellulose) (HPC) 92 % of control | [2] 102 % of control | dose: 200.0 mg/kg/injection, schedule: Q04DX003 (ip), vehicle: Klucel (hydroxypropylcellulose) (HPC) 94 % of control | dose: 400.0 mg/kg/injection, schedule: Q01DX001 (ip), vehicle: Klucel (hydroxypropylcellulose) (HPC) 110 % of control | dose: 400.0 mg/kg/injection, schedule: Q04DX003 (ip), vehicle: Klucel (hydroxypropylcellulose) (HPC) 96 % of control

O=[N+]([O-])c1cc(Cl)ccc1N1CCCCC1
inactive: dose: 100.0 mg/kg/injection, schedule: Q01DX009 (ip), vehicle: saline with Tween-80 97 % of control | dose: 200.0 mg/kg/injection, schedule: Q01DX009 (ip), vehicle: saline with Tween-80 98 % of control | dose: 400.0 mg/kg/injection, schedule: Q01DX009 (ip), vehicle: saline with Tween-80 106 % of control

O=C(CC(C#Cc1ccccc1)c1ccccc1)c1ccccc1 (stereo not given)
inactive: dose: 75.0 mg/kg/injection, schedule: Q04DX003 (ip), vehicle: Klucel (hydroxypropylcellulose) (HPC) 97 % of control | dose: 150.0 mg/kg/injection, schedule: Q04DX003 (ip), vehicle: Klucel (hydroxypropylcellulose) (HPC) 101 % of control | dose: 300.0 mg/kg/injection, schedule: Q04DX003 (ip), vehicle: Klucel (hydroxypropylcellulose) (HPC) 94 % of control

COc1cc(N=O)c(C(=O)c2nccc3cc(OC)c(OC)cc23)cc1OC
inactive: [6] 104 % of control | [7] 91 % of control | [8] 94 % of control

O=[N+]([O-])c1ccc(N/N=C(/Cc2ccccc2)c2ccc(Cl)cc2)c([N+](=O)[O-])c1
inactive: [6] 107 % of control | [7] 86 % of control | [8] 98 % of control

NC(=S)N/N=C/c1cccn1-c1ccc2ncccc2c1[N+](=O)[O-]
inactive: dose: 25.0 mg/kg/injection, schedule: Q04DX002 (ip), vehicle: Klucel (hydroxypropylcellulose) (HPC) 93 % of control | dose: 50.0 mg/kg/injection, schedule: Q04DX002 (ip), vehicle: Klucel (hydroxypropylcellulose) (HPC) 93 % of control | dose: 100.0 mg/kg/injection, schedule: Q04DX002 (ip), vehicle: Klucel (hydroxypropylcellulose) (HPC) 90 % of control

C/C(=N\N=C(N)N)c1ccc(NC(N)=S)cc1
inactive: dose: 20.0 mg/kg/injection, schedule: Q01DX005 (ip), vehicle: saline 106 % of control | dose: 40.0 mg/kg/injection, schedule: Q01DX005 (ip), vehicle: saline 97 % of control

O=C(O)c1ccc(Nc2ccccc2)cc1
inactive: [3] 103 % of control | [4] 90 % of control | [5] 90 % of control
